Assay results as given in patent US12344596B2, “Solid forms of (S)-1-((2′,6-bis(difluoromethyl)-[2,4′-bipyridin]-5-yl)oxy)-2,4-dimethylpentan-2-amine and salts thereof” (Lexicon Pharmaceuticals, Inc., priority 2022, dated 2025).

Tests used:
[1] = water solubility at 25° C.; type: physicochemical; conditions: aqueous
[2] = storage stability at 40° C. and 75% relative humidity; type: physicochemical; conditions: stored at 40° C. and 75% relative humidity for up to four weeks
Description: Instead, the melting of Form I is observed to recrystallize to another, metastable form having a melting point of about 172.5° C.

| solubility [1] | SMILES | stability of form, morphology and purity on storage [2] |
| --- | --- | --- |
| 2900 µg/mL | CC(C)C[C@](C)(N)COc1ccc(-c2ccnc(C(F)F)c2)nc1C(F)F.Cl [Compound S, (S)-1-((2′,6-bis(difluoromethyl)-[2,4′-bipyridin]-5-yl)oxy)-2,4-dimethylpentan-2-amine hydrochloride] | – |
| – | CC(C)C[C@](C)(N)COc1ccc(-c2ccnc(C(F)F)c2)nc1C(F)F [Compound K, ((S)-1-((2′,6-bis(difluoromethyl)-[2,4′-bipyridin]-5-yl)oxy)-2,4-dimethylpentan-2-aminiumdihydrogen phosphate] | neither the form itself, its morphology, nor its purity changed |
